From patent EP0358494B1, “Emulsifiable concentrate of a pesticide” (priority 1988, dated 1990)
Read-outs that look alike come from different tables or passages of the source.

Test: Solubility of water in the cosolvent (Table 1)
Assay type: physicochemical
Procedure: All of the compositions were prepared by simple mechanical agitation of the ingredients together, using a Silveron (Trade Mark) high shear mixer. The nature and water solubility of the various cosolvents employed are as noted in Table 1.

[1] = the cosolvent itself (neat solvent)

COC(C)COC(C)CO (centres unmarked) [Dipropylene glycol monomethyl ether]
Solubility of water in solvent (H20/Solv): miscible

CCOP(=S)(OCC)Oc1nc(Cl)c(Cl)cc1Cl [chlorpyrifos]
Solubility of water in solvent (H20/Solv): .0002% w/w

CCSCc1ccccc1OC(=O)NC [ethiofencarb]
Solubility of water in solvent (H20/Solv) [1]: 0.18% w/w

COP(=S)(OC)Oc1ccc([N+](=O)[O-])c(C)c1 [fenitrothion]
Solubility of water in solvent (H20/Solv) [1]: 0.0014% w/w

xylene
Solubility of water in solvent (H20/Solv): 0.87% w/w
